This is an account of results in article PMC3004914, “Classification of Drugs Based on Properties of Sodium Channel Inhibition: A Comparative Automated Patch-Clamp Study” (PLoS ONE, 2010).

For data set [1], the system named is sodium channels. The note with it: cited from earlier work.
The target of data set [2] is T1, rNav1.2 sodium channels (HEK-293 cells) (Rattus norvegicus, UniProt P04775). The data set is described as follows: 5 Hz train protocol, QPatch automated patch-clamp.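 As to UD (use-dependence of the inhibition): UD = (A3/A4)/(A1/A2) as ratios of peak amplitudes from Figure 1A.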 It counts as cell-based. The note with it: for Rev (reversibility): Rev = A5/A1 after washout. A digest of the protocol:
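rNav1.2 in stable HEK-293 cells, QPatch whole-cell; 5 Hz trains of five pulses from −90 to −10 mV, repeated every 20 s; 10 control trains, 10 with drug, then washout. Inhibition of peak current at a single concentration gave IC50; reversibility, use-dependence and τoff also derived.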

The target of data set [3] is T1, rNav1.2 sodium channels (HEK-293 cells). The data set is described as follows: steady-state inactivation protocol (availability curves), QPatch automated patch-clamp. It counts as cell-based. A digest of the protocol:
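HEK-293 cells stably expressing rat Nav1.2, recorded by automated patch clamp in extracellular solution pH 7.3 containing CdCl2 and TEA. Availability measured with 400 ms pre-pulses from −150 to −30 mV, then a 10 ms test pulse to −10 mV. Kr, Ki (four-state model) and Kr/Ki state-dependence derived from inhibition and ΔV1/2.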

The conditions of data set [4]: human plasma, cited from earlier work.
Data set [5] concerns the target sodium channels. The following applies: cited from earlier work; for Ki: read-out: Ki−Lit; for Kd: read-out: Kr−Lit.
[6] abbreviates: 300 μM, 3 s assigned where too short to be resolved.
The mark [7] stands for this setting: HEK293, read-out: IC50, calculated from Inh at single concentration 100 μM, −90 mV, 5 Hz train.
Setting [8] is: HEK293, read-out: IC50, calculated from Inh at single concentration 300 μM, −90 mV, 5 Hz train.
[9] abbreviates: HEK293, read-out: Inh (inhibited fraction).
Where [10] appears, read: HEK293, read-out: Inh (inhibited fraction) at holding potential −150 mV.
[11] abbreviates: arithmetic mean, 300 µM, read-out: Ki-Kapp arith.
Where [12] appears, read: arithmetic mean, 300 µM, read-out: Ki-ΔV1/2 arith.
[13] abbreviates: arithmetic mean, 300 µM, read-out: Kr arith.
Setting [14] is: geometric mean, from Inh at −150 mV, 300 µM, read-out: Kr (resting state affinity).
[15] abbreviates: geometric mean, from apparent affinity, 300 µM, read-out: Ki−Kapp (inactivated state affinity).
[16] abbreviates: geometric mean, from shift of availability curve, 300 µM, read-out: Ki−ΔV1/2 (inactivated state affinity).
Where [17] appears, read: 100 μM, 500 s assigned where irreversible.
Setting [18] is: arithmetic mean, 100 µM, read-out: Ki-Kapp arith.
The mark [19] stands for this setting: arithmetic mean, 100 µM, read-out: Ki-ΔV1/2 arith.
The mark [20] stands for this setting: arithmetic mean, 100 µM, read-out: Kr arith.
Where [21] appears, read: geometric mean, from Inh at −150 mV, 100 µM, read-out: Kr (resting state affinity).
Setting [22] is: geometric mean, from apparent affinity, 100 µM, read-out: Ki−Kapp (inactivated state affinity).
The mark [23] stands for this setting: geometric mean, from shift of availability curve, 100 µM, read-out: Ki−ΔV1/2 (inactivated state affinity).

Several values for one entry are separate records, joined by “and”; a condition that tells them apart may be missing. Equal values may be shown once. Read-outs that look alike come from different tables or passages of the source.

T1 sequence (P04775 whole entry): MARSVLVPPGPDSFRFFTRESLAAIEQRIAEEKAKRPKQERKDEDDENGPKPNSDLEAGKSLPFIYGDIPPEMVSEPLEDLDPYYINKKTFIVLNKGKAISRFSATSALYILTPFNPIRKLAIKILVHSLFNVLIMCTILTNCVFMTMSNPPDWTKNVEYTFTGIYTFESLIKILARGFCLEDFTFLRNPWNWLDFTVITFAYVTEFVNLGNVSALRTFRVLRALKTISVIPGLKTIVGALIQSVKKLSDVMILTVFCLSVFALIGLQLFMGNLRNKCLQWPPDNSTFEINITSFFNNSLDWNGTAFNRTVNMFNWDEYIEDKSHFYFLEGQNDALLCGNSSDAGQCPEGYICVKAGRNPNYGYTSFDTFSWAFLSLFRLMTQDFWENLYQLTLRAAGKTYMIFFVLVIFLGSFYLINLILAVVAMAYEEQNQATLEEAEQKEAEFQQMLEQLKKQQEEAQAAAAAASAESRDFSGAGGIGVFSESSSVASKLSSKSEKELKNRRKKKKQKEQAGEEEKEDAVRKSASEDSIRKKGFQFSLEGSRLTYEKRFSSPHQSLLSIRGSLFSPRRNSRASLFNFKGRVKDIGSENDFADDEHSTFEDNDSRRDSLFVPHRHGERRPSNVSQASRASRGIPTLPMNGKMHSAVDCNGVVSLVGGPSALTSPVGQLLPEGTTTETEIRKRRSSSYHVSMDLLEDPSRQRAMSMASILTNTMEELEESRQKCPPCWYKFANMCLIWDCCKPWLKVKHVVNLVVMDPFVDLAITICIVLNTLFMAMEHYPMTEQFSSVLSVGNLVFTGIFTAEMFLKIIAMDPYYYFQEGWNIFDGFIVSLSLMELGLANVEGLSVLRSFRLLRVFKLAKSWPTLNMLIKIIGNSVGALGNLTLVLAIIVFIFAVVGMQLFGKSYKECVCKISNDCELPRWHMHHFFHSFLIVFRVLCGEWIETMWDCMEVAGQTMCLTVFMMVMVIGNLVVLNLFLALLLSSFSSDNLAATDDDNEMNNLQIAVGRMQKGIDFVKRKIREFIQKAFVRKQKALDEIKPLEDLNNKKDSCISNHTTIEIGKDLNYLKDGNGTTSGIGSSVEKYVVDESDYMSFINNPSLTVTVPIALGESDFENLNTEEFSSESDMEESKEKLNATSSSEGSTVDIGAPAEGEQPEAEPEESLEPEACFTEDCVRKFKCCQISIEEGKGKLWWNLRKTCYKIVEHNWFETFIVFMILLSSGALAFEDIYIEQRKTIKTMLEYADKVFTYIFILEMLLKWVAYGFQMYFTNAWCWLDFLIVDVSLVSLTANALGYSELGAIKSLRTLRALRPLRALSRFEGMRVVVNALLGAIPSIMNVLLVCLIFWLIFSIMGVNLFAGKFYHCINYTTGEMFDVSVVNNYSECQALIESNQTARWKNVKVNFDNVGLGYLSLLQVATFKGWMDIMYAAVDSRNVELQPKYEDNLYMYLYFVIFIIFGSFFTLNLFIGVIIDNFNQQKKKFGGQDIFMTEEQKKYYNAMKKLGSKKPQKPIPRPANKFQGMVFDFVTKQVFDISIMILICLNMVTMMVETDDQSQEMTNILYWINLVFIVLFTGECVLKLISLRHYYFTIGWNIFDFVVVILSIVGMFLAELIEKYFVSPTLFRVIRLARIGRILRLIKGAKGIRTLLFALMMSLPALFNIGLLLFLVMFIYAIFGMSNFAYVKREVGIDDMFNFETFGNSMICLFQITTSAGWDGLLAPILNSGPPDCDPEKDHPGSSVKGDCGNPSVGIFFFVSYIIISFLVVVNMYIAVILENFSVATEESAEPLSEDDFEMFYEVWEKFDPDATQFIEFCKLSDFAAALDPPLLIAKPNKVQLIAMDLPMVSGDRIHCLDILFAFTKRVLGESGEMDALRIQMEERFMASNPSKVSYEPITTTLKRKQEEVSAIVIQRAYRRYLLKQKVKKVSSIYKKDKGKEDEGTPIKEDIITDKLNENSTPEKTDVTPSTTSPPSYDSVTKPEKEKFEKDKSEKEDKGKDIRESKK

`CCN(CC)CC(=O)Nc1c(C)cccc1C` [LID, Lidocaine]: in data set [1], the “criterion of at least 60% inhibition at 10 µM concentration” value is “failed to fulfill this criteria”. Besides, the τoff in data set [2] (300 μM) is on record as 6 s. The τon in data set [2] (setting [6]) came to 3 s. Besides, the “UD (use-dependence of the inhibition)” value in data set [2] (300 μM, 5 Hz train) came to 1.14. In addition, the “Rev (reversibility)” value in data set [2] (300 μM) worked out at 0.95. In addition, the potency estimated from few doses in data set [2] (setting [7]) was 1050 µM; in data set [2] (setting [8]), 977 µM; in data set [2] (HEK293, read-out: IC50, calculated from Inh at single concentration 1000 µM) it was 1270 µM; in data set [2] (read-out: IC50, calculated from Inh at single concentration 300 μM, −90 mV, 5 Hz train), 1080 µM. The inhibition at 100 µM in data set [2] (setting [9]) came to 9%. The inhibition at 300 µM in data set [2] (setting [9]) is 23%; in data set [3] (setting [10]) it was 9%. The inhibition at 1000 µM in data set [2] (setting [9]) was 44%. In addition, the potency entry in data set [2] (in words) is on record as “among the least potent SCIs”. Also, the Ki is 70.3 µM in data set [3] (setting [11]), 114 µM in data set [3] (setting [12]), 65.7 µM in data set [3] (setting [15]) and 89.6 µM in data set [3] (setting [16]). The Kd in data set [3] (setting [13]) turned out to be 3340 µM; in data set [3] (setting [14]), 3190 µM.

As for `Nc1nnc(-c2cccc(Cl)c2Cl)c(N)n1` [LTG, Lamotrigine], the plasma conc. in data set [4] (as printed in each cell) was 2.5 [44] µg/ml; in data set [4] (as printed in the µg/ml cell), 9.762 µM. In data set [1], the “criterion of at least 60% inhibition at 10 µM concentration” value was “failed to fulfill this criteria”. In data set [2] (300 μM), the τoff stood at 18.1 s. The compound also came in with a τon in data set [2] (setting [6]) of 8.19 s. For the same compound, the “UD (use-dependence of the inhibition)” value in data set [2] (300 μM, 5 Hz train) is listed as 0.97. Moreover, the “Rev (reversibility)” value in data set [2] (300 μM) is reported as 0.85. Also, the potency estimated from few doses in data set [2] (setting [8]) was 905 µM. The inhibition at 300 µM in data set [2] (setting [9]) is 25%; in data set [3] (setting [10]), 12%. Moreover, the “ΔV1/2 (shift of availability curve)” value in data set [3] (300 μM) is given as −10.3 mV. The Ki is 40.4 µM in data set [3] (setting [11]); 37.3 µM in data set [3] (setting [12]); 36.7 µM in data set [3] (setting [15]); 31.3 µM in data set [3] (setting [16]); 15.1 µM in data set [5] (averaged literature data). For the same compound, the Kd in data set [3] (setting [13]) was 2330 µM; in data set [3] (setting [14]), 2270 µM; in data set [5] (averaged literature data) it was 1560 µM.

On to `C[Si](C)(Cc1ccc(F)cc1)CN1CCCCC1` [SIL, Silperisone], for which the figures for the plasma conc. in data set [4] (as printed in each cell) and in data set [4] (as printed in the µg/ml cell) were 0.45 [56] µg/ml and 1.484 µM, respectively. The τon in data set [2] (100 μM) is given as 4.1 s. For the same compound, the “UD (use-dependence of the inhibition)” value in data set [2] (100 μM, 5 Hz train) stood at 1.16. In data set [2] (setting [17]), the τoff stood at 15.21 s. The “Rev (reversibility)” value in data set [2] (100 μM) stood at 0.8. Further, the “Inh (inhibited fraction)” value in data set [2] (100 μM, −90 mV holding potential, 5 Hz train) is given as 0.45. In addition, the potency estimated from few doses in data set [2] (calculated from Inh at single concentration 100 μM, −90 mV, 5 Hz train, read-out: IC50) was 121 µM. In addition, in data set [3] (100 μM), the “Inh (inhibited fraction) at holding potential −150 mV” value is listed as 0.43. The “ΔV1/2 (shift of availability curve)” value in data set [3] (100 μM) was −7.66 mV. Also, the Ki is 7.08 µM in data set [3] (setting [18]); 14.6 µM in data set [3] (setting [19]); 6.7 µM in data set [3] (setting [22]); 14 µM in data set [3] (setting [23]); 34.9 µM in data set [5] (averaged literature data). The values for the Kd in data set [3] (setting [20]), in data set [3] (setting [21]) and in data set [5] (averaged literature data) were 135 µM, 133 µM and 340 µM, respectively.

Take `Cc1ccc(C(=O)C(C)CN2CCCCC2)cc1` (stereo not drawn) [TOL, Tolperisone]: the plasma conc. in data set [4] (as printed in each cell) was 0.43 [57] µg/ml; in data set [4] (as printed in the µg/ml cell) it was 1.508 µM. Also, in data set [2] (100 μM), the τon came out at 5.57 s. Moreover, the “UD (use-dependence of the inhibition)” value in data set [2] (100 μM, 5 Hz train) is listed as 1.14. The τoff in data set [2] (setting [17]) was 7.42 s. In data set [2] (100 μM), the “Rev (reversibility)” value is 0.95. In addition, the inhibition at 100 µM in data set [2] (HEK293, 100 μM, −90 mV holding potential, 5 Hz train, read-out: Inh (inhibited fraction)) amounted to 23%; in data set [3] (HEK293, 100 µM, read-out: Inh (inhibited fraction) at holding potential −150 mV), 21%. Besides, the potency estimated from few doses in data set [2] (HEK293, calculated from Inh at single concentration 100 μM, −90 mV, 5 Hz train, read-out: IC50) was 336 µM. In data set [3] (100 μM), the “ΔV1/2 (shift of availability curve)” value is recorded as −6.47 mV. In addition, the Ki was 24.3 µM in data set [3] (setting [18]); 43.2 µM in data set [3] (setting [19]); 21 µM and 21.1 µM in data set [3] (setting [22]); 30.9 µM in data set [3] (setting [23]); 5.07 µM in data set [5] (averaged literature data). Moreover, the Kd in data set [3] (setting [20]) was 399 µM; in data set [3] (setting [21]) it was 391 µM; in data set [5] (averaged literature data), 384 µM.

Regarding `COc1ccc(C(CN(C)C)C2(O)CCCCC2)cc1` (stereo not drawn) [VFX, Venlafaxine], the plasma conc. in data set [4] (as printed in each cell) is 0.17 [44] µg/ml; in data set [4] (as printed in the µg/ml cell), 0.532 µM. In data set [2] (100 μM), this compound registered a τon of 4.85 s. For the same compound, in data set [2] (100 μM, 5 Hz train), the “UD (use-dependence of the inhibition)” value was found to be 1.05. The same compound yielded a τoff in data set [2] (setting [17]) of 5.2 s. Also, the “Rev (reversibility)” value in data set [2] (100 μM) was determined as 0.89. Also, the potency estimated from few doses in data set [2] (setting [7]) was 727 µM. The inhibition at 100 µM is 12% in data set [2] (setting [9]) and 11% in data set [3] (setting [10]). Besides, the “ΔV1/2 (shift of availability curve)” value in data set [3] (100 μM) is reported as −4.66 mV. Also, the Ki in data set [3] (Ki-Kapp arith, arithmetic mean, 100 µM) was 72.8 µM; in data set [3] (Ki-ΔV1/2 arith, arithmetic mean, 100 µM), 75.8 µM; in data set [3] (Ki−Kapp (inactivated state affinity), geometric mean, from apparent affinity, 100 µM), 63.4 µM; in data set [3] (Ki−ΔV1/2 (inactivated state affinity), geometric mean, from shift of availability curve, 100 µM) it was 59.5 µM; in data set [5] (averaged literature data) it was 0.64 µM. Besides, the Kd in data set [3] (Kr (resting state affinity), geometric mean, from Inh at −150 mV, 100 µM) is 889 µM; in data set [3] (Kr arith, arithmetic mean, 100 µM) it was 1000 µM; in data set [5], 8 µM.
